Source: patent publication EP2671872A1, “Fluorinated pyridylacetylene derivatives as tracers” (Eidgenössische Technische Hochschule Zürich (ETH), priority 2012, dated 2013)
Read-outs that look alike come from different tables or passages of the source. Blank lines part the entries; values can stand above or below the molecule they belong to.

Tests used:
mGluR5 [1] = biological target: T1, mGluR5 (Rattus norvegicus, UniProt P31424); assay: ex vivo brain distribution with MTEP blockade (gamma counter); assay type: in vivo, Rats; design: from tissue; host or cells: rat brain regions after in vivo injection; settings: 45 min after injection
Procedure: Rats were pre-injected (tail vein) with 10 mg/kg MTEP (a specific mGluR5 antagonist) before [^18F]PSS232 injection (= blockade, see green, right bars in Fig. 10) or they were pre-injected with vehicle (= baseline, see blue, left, bars in Fig. 10).

mGluR5 [2] = biological target: T1, mGluR5; assay: in vitro autoradiography of rat brain slices; assay type: binding; design: from tissue; host or cells: brain of living animal (in vivo PET, tail vein injection); settings: about 1 nM tracer, 20 µm slices; compared with 100 nM ABP688 (mGluR5 ligand) or JNJ16259685 (mGluR1 ligand)
Procedure: In Fig. 4 two rat brain slices (20 µm) each were incubated with about 1 nM [^18F]PSS232 in the absence of any unlabeled compound (top) or with 100 nM of the specific mGluR5 ligand ABP688 (middle) or of mGluR1 ligand JNJ16259685 (bottom). […] It should be noted that mGluR1 is the receptor with most similar amino acid sequence to mGluR5.

mGluR5 [3] = biological target: T1, mGluR5; assay: ex vivo brain distribution after MMPEP pre-injection at various doses (receptor occupancy); settings: estimated from fit of MMPEP dose curve; 45 min after injection
[4] = defluorination by rat liver microsomes; assay type: in vitro ADME
[5] = defluorination by human S9 fraction of liver homogenate; assay type: in vitro ADME
[6] = defluorination by human liver microsomes; assay type: in vitro ADME
mGluR5 [7] = biological target: T1, mGluR5; assay: PET scan of rat brain, kinetic behavior (ratio of specifically bound to free ligand); assay type: in vivo, Wistar rat; design: from tissue; host or cells: brain of living male Wistar rat (in vivo PET); settings: tail vein injection
Procedure: A male Wistar rat (423 g) was injected 23.1 MBq [^18F]PSS232 into a tail vein and PET was acquired from 0 to 90 min post injection. […] Only brain is shown. SUV denotes standardized uptake value.
PET scans analogous to those of Example 3 were recorded after administration of [^18F]PSS232 (Fig. 7, red curves, circles and diamonds), [^11C]ABP688 (Fig. 7, black curves, squares and triangles) and [^18F]FDEGPECO (Fig. 7, blue curves, crosses and crossed bars).
Fig. 9 illustrates the favorable kinetic behavior of PSS232. The ratio of specifically bound PSS232 in caudate putamen (striatum) to free ligand PSS232 (radioactivity in cerebellum is considered to originate from free ligand) becomes constant at about 40 min after injection, thus allowing the estimation of the binding potential (BP). This is an advantage over [^11C]ABP688 where the equilibrium is not reached within 60 min and the short physical half-life of ^11C (20 min) limits the scan duration.

[8] = defluorination in vivo in rats
[9] = humans; background, relative to rodents and monkeys; cited from earlier work
[10] = rodents; background; cited from earlier work
[11] = monkeys; background; cited from earlier work
mGluR5 [12] = biological target: T1, mGluR5; settings: background, literature; cited from earlier work
[13] = rats; background, literature; cited from earlier work
rat mGluR5 = biological target: T2, rat mGluR5 (Rattus norvegicus, UniProt P31424); assay: displacement assay with rat brain membranes and [^3H]ABP688; assay type: binding; settings: radioligand of the displacement assay, used at 1.6 nM, rat brain membranes
T2 construct: displacement assay with rat brain membranes and 1.6 nM [^3H]ABP688; from tissue; host or cells: rat brain membranes
T2 sequence (P31424 21-1203): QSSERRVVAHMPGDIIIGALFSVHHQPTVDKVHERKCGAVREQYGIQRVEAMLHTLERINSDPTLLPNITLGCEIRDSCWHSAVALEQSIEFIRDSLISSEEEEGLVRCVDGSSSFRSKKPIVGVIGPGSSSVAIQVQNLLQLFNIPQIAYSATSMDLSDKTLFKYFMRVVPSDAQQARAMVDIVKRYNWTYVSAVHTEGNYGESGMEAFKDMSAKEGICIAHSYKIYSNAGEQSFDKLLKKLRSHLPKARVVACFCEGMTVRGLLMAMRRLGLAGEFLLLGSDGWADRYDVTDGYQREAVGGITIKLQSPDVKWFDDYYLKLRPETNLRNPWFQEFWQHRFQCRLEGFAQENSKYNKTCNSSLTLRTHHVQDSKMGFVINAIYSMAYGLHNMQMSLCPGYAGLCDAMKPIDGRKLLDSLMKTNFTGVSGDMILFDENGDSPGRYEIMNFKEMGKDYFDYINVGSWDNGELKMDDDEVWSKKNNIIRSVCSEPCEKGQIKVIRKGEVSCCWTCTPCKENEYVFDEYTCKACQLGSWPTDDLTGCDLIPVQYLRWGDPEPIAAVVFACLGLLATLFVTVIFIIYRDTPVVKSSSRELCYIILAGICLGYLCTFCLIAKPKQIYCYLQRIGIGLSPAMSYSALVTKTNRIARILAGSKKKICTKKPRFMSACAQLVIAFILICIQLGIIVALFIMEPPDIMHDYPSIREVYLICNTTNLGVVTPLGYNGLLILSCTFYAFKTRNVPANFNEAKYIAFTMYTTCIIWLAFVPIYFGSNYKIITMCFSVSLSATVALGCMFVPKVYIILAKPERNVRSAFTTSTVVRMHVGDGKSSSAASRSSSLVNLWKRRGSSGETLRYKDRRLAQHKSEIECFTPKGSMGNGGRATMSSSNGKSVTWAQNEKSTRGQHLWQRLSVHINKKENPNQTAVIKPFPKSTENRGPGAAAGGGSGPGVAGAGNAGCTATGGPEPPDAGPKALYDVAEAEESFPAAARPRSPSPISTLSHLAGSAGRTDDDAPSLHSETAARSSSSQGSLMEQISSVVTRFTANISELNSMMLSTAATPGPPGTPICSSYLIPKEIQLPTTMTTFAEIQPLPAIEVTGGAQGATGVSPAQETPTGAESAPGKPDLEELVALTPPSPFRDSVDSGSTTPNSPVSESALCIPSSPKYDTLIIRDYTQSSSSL

T1 sequence (P31424 21-1203): as above

Molecule: N#Cc1cc(F)cc(C#Cc2csc(C[18F])n2)c1 [[^18F]-SP203]
defluorination [9]: to a lesser extent
defluorination [10]: significant defluorination
defluorination [11]: significant defluorination

Molecule: [18F]CCOCCO/N=C1/C=C(C#Cc2ccccn2)CCC1 [[^18F]FDEGPECO, (E)-3-(Pyridin-2-ylethynyl)-cyclohex-2-enone-O-2-(2-^18F-fluoroethoxy)ethyl oxime]
mean residence time at the target site (mGluR5 [12]): relatively short

Molecule: [18F]CCCOCCO/N=C1/C=C(C#Cc2ccccn2)CCC1 [[^18F]PSS223, (E)-3-(pyridin-2-ylethynyl)cyclohex-2-enone O-(2-(3-^18F-fluoropropoxy)ethyl) oxime]
defluorination in vivo [13]: rapid defluorination

Molecule: MTEP
radioactivity of brain regions after MTEP pre-injection (mGluR5 [1]; 10 mg/kg MTEP tail vein before [^18F]PSS232): all brain regions have similar radioactivity as in cerebellum

Continued, values first:

average specific binding in striatum (mGluR5 [1]; baseline (vehicle) vs blockade with 10 mg/kg MTEP): 86.6%
accumulation in mGluR5-rich domains of rat brain slices (mGluR5 [2]): high, mGluR5-selective accumulation
maximal specific binding in striatum (mGluR5 [3]): 78.5%
Molecule: FCCOCCCO/N=C1/C=C(C#Cc2ccccn2)CCC1 [[^18F]PSS232, (E)-3-(pyridin-2-ylethynyl)-cyclohex-2-enone O-(3-(2-fluoroethoxy)propyl) oxime]

defluorination [4]: not significantly defluorinated
defluorination [5]: not significantly defluorinated
defluorination [6]: not significantly defluorinated
time after injection at which ratio of specifically bound (caudate putamen/striatum) to free ligand (cerebellum) becomes constant (equilibrium) (mGluR5 [7]): about 40 min
defluorination in vivo [8]: does not show significant defluorination
Molecule: FCCOCCCO/N=C1/C=C(C#Cc2ccccn2)CCC1 [PSS232, (E)-3-(pyridin-2-ylethynyl)-cyclohex-2-enone O-(3-(2-fluoroethoxy)propyl) oxime]

Kd (rat mGluR5): 1.7 nM
Molecule: CON=C1C=C(C#Cc2cccc(C)n2)CCC1 [[^3H]ABP688]

time after injection at which ratio of specifically bound (caudate putamen/striatum) to free ligand (cerebellum) becomes constant (equilibrium) (mGluR5 [7]): > 60 min
Molecule: Cc1cccc(C#CC2=C/C(=N/O[11CH3])CCC2)n1 [[^11C]ABP688, (E)-3-((6-methylpyridin-2-yl)ethynyl)cyclohex-e-enone-O-^11C-methyl oxime]
